Assay results: patent publication US7892830B2, “Clonal culture of human pluripotent stem cells” (Wisconsin Alumni Research Foundation, priority 2007, dated 2011)
Counter-ions that a name gives are not always drawn.

Columns and labels:
PKG = settings: cited from earlier work
PKA = settings: cited from earlier work
H1 human ES cells [1] = assay: 6-well cloning efficiency assay in TeSR1 medium on Matrigel, colonies counted manually; type: cell-based; settings: for max. CE (%): cloning efficiency = CFU per number of plated single cells; for confirmation in 6-well assay as active in increasing cloning efficiency: 6-well plates, varying concentrations
From the text: As described above, a difficulty in growing pluripotent cells, like ES cells, in culture is their low cloning efficiency. As used herein, “cloning efficiency” means a number of cells individualized by trypsin that form new ES cell colonies divided by the number of individual cells plated in a well of a culture dish. In our prior experience with growing human ES cells in defined and animal-free conditions on a matrix (e.g., Matrigel®), cloning efficiency was very low (i.e., less than 0.1%). This contrasts with prior experience using culture systems based on medium conditioned by exposure to fibroblasts, where the cloning efficiency, while still low (i.e., less than 2%), was high enough to initiate clonal ES cell colonies. As disclosed herein, the addition of a small molecule to the culture medium in which human ES cells are grown permits the ES cell cultures to be clonally cultivated in a manner that is extremely difficult without the addition of the small molecule. Several small molecules are exemplified herein for this purpose.
For these assays, 10,000 cells per well were plated on Matrigel®—coated plates and then treated every other day for a total of four days. with the small molecules as described above. To evaluate the effect of the tested small molecules on cloning efficiency, we manually counted colonies after 10 days.
We determined cloning efficiency (CE; the number of colony forming units (CFU) per number of plated single cells, trypsin/EDTA treated). HA-100 was the first molecule identified in the small molecule screen, following which other structurally similar small molecules were also tested for cloning efficiency.

PKC = settings: cited from earlier work
H1 human ES cells [2] = assay: Example 2 colony formation with ROCK inhibitors, ALP assay and examination by eye; type: cell-based; settings: for concentration showing the most colony formation with the ALP assay: tested 5 nM to 20 μM, TeSR1, Matrigel
Method: The experiments described in Example 1 were repeated with H-1152 (EMD Chemicals, Inc./Calbiochem; San Diego, Calif.) and Y-27632 (EMD Chemicals, Inc./Calbiochem). Briefly, H-1152 or Y-27632 was dissolved in DMSO to a concentration of 20 mM. H1 human ES cells were grown on Matrigel®—coated plates in TeSR™1 medium at a density of 100,000 cells per ml. H-1152 and Y-27632 were added to wells on their own plates at a final concentration of 20 μM, 15 μM, 10 μM or 5 μM in DMSO. DMSO and HA-100 (10 μM) were used as the negative and positive controls, respectively. The plates were treated every other day for a total of four days. Colony formation was detected with the ALP assay described above.
In a second experiment, H-1152 and Y-27632 were added to wells on their own plates at a final concentration of 5 μM, 500 nM, 50 nM or 5 nM in DMSO. DMSO and HA-100 (10 μM) were used as the negative and positive controls, respectively. The plates were treated as described above.

human ES cells [3] = assay: Cloning efficiency in conditioned medium (CM); type: cell-based; settings: CM substituted for TeSR1, otherwise identical treatment
Method: (§1) We have also tested these small molecules for effects on human ES cell cloning on other medium. We tested the effect on conditioned medium (CM) substituting TeSR™1 medium with CM and otherwise identical treatment. The cloning efficiency of the medium increased with addition of HA-100. In addition, we performed a similar test with unconditioned medium to which 100 ng/μl of bFGF had been added.

human ES cells [4] = assay: Cloning efficiency in unconditioned medium with added bFGF; type: cell-based; settings: unconditioned medium with 100 ng/μl bFGF, compared to control cultures lacking HA-100
Method: as §1

H1 human ES cells [5] = assay: Fluorometric high-throughput ALP (DiFMUP) screen for colony formation, 96-well; type: cell-based; settings: 10 μM, 500 cells per well, TeSR1, a typical hit read above 200,000
Method: The screen was conducted using a fluorescent, high-throughput assay to screen small molecules for their ability to enhance cloning efficiency. A soluble, non-fluorescent substrate (6,8-difluoro-4-methylumbelliferyl phosphate, DiFMUP) was converted to a fluorescent product by an enzyme specific for undifferentiated, human ES cells called alkaline phosphatase (ALP).
In wells that had colonies larger than 2,000 cells, and which formed 12 days after seeding 500 individualized human ES cells in a 96-well plate, increased fluorescence from DiFMUP hydrolyzed by ALP indicated any well that contained a compound that enabled colony formation. […] Thus, this assay tested both for clonal propagation and for maintenance of undifferentiated status.
The screen used a small molecule library made up of characterized compounds with known bioactivity that was purchased from Sigma-Aldrich (St. Louis, Mo.). Members of the library were dissolved in DMSO to a concentration of 1 mM. All other chemicals used were purchased from Sigma, unless otherwise indicated in the text. H1 human ES cells (WiCell Research Institute; Madison, Wis.) were grown in the defined TeSR™1 medium, which was prepared as described in Ludwig et al., supra.
The assay was performed at the Keck-UWCCC Small Molecule Screening Facility (University of Wisconsin—Madison; Madison, Wis.) in 96-well microplates (Nunclon/Nunc; Roskilde, Denmark) using a Beckman Biomek® FX Laboratory Workstation and a Perkin Elmer VictorIII® Plate Reader. The microplates were coated with Matrigel® (#354230, growth factor reduced; BD Bioscience; San Jose, Calif.) at 0.3 mg/ml in DMEM/F12 (Invitrogen; Carlsbad, Calif.) for 1 hour at room temperature.
H1 human ES cells were grown in 6-well Nunclon® dishes to day 5, and then treated with 1 ml Trypsin/EDTA (Invitrogen) containing 1% chick serum for 5 minutes at 37° C. Trypsin was quenched with 20% FBS in DMEM/F12, and the cells were collected by centrifugation for 1.5 minutes at 200 RCF. After aspiration of the medium, cells were re-suspended in TeSR™1 medium to a density of 5,000 cells per ml. Of this cell suspension, 100 μL was dispensed into each well, and 1 μL of a […] DMSO solution of inhibitor was added and mixed by pipetting, resulting in a final inhibitor concentration of 10 μM. The plates were incubated at 5% CO2 at 37° C. for 2 days. Then, the medium was exchanged with TeSR™1 medium not having the cloning molecule. […]
To detect colony formation, we used a fluorometric, ALP assay (EnzChek®; Invitrogen). […] In wells that had colonies, increased fluorescence indicated any well containing a compound that led to colony formation. […] Plates were read by a multi-plate reader (excitation 355 nm, emission 455 nm, at 0.1 ms emission intervals).

Oct4 = Oct4 immunofluorescence of cloned colonies; type: cell-based, human; settings: colonies from HA-100 treatment
From the text: We also tested the resulting colonies from HA-100 treatment for the presence of Oct4, an intracellular marker for pluripotent ES cells.

ROCK1/ROCK2 = settings: read-out: IC50 ROCK1/ROCK2; competing with ATP; cited from earlier work

Molecule | IC50 (PKG) [µM] | IC50 (PKA) [µM] | max. CE (%) (H1 human ES cells [1]; TeSR1, Matrigel) | IC50 (PKC) [µM] | result of small molecule screen (colony formation, ALP fluorescence) (H1 human ES cells [5]) | confirmation in 6-well assay as active in increasing cloning efficiency (H1 human ES cells [1]) | also measured
CC1CNCCN1S(=O)(=O)c1cccc2cnccc12 (centres unmarked) [H-7, 1-(5-isoquinolinesulfonyl)-2-methylpiperazine] | 5.8 | 3 | <1 | 6 | – | – | –
O=S(=O)(NCCNC/C=C/c1ccc(Br)cc1)c1cccc2cnccc12 [H-89, N-[2-p-bromo-cinnamylamino)ethyl]-5-isoquinolinesulfonamide dihydrochloride] | 0.48 | – | 2.5 | 31.7 | – | – | –
Cc1cncc2cccc(S(=O)(=O)N3CCCNC[C@@H]3C)c12 [H-1152, (S)-(+)-2-methyl-1-[(4-methyl-5-isoquinolinyl)sulfonyl]homopiperazine dihydrochloride] | – | – | – | – | – | – | colony formation by eye compared with HA-100 (at 10 μM) (H1 human ES cells [2]; concentrations above 500 nM): equal or better than HA-100; working concentration compared with HA-100 (H1 human ES cells [2]; facilitating clonal growth): ten times lower; concentration showing the most colony formation with the ALP assay (H1 human ES cells [2]): 500 nM
O=S(=O)(c1cccc2cnccc12)N1CCNCC1 [HA-100, 1-(5-isoquinolinesulfonyl)piperazine hydrochloride] | 4 | 8 | 2 | 12 | hits | confirmed | effect on cloning efficiency in conditioned medium (human ES cells [3]): increased; effect on cloning efficiency in unconditioned medium (human ES cells [4]): increased cloning efficiency; Oct4 expression in cloned colonies (immunofluorescence) (Oct4): maintenance of Oct4 expression
Cl.N=C(N)NCCNS(=O)(=O)c1cccc2cnccc12 [HA-1004, N-(2-guanidinoethyl)-5-isoquinolinesulfonamide hydrochloride] | 1.3 | 2.3 | <1 | 40 | – | – | CFU+ (concentration range with colony forming units) (H1 human ES cells [1]; 6-well plates, 10,000 cells per well, TeSR1, Matrigel, colonies counted after 10 days): >50.0 µM
Cl.Cl.O=S(=O)(c1cccc2cnccc12)N1CCCNCC1 [HA-1077, 1-(5-isoquinolinesulfonyl)homopiperazine dihydrochloride] | – | – | – | – | – | – | effect on cloning efficiency of human ES cells (H1 human ES cells [1]; related small molecules tested after HA-100): increased cloning efficiency
C[C@@H](N)[C@H]1CC[C@H](C(=O)Nc2ccncc2)CC1 [Y-27632, (+)-(R)-trans-4-(1-aminoethyl)-N-(4-pyridyl)cyclohexanecarboxamide dihydrochloride] | – | – | – | – | – | – | IC50 (ROCK1/ROCK2): 0.8 µM; colony formation by eye compared with HA-100 (at 10 μM) (H1 human ES cells [2]; concentrations above 5 μM): equal or better than HA-100; concentration showing the most colony formation with the ALP assay (H1 human ES cells [2]): 5000 nM
CC1CN(S(=O)(=O)c2cccc3cnccc23)CCN1 (centres unmarked) [iso H-7, 1-(5-isoquinolinesulfonyl)-3-methylpiperazine] | > 5.8 | > 3 | <1 | > 6 | – | – | –
CC(C)CCC[C@@H](C)[C@H]1CC[C@H]2C3=CC[C@H]4C[C@@H](O)CC[C@]4(C)[C@H]3CC[C@]12C [lathosterol] | – | – | – | – | hits | only HA-100 could be confirmed | –
CC1(C)OC(=O)C=CC2(C)C1CC(O)C1(C)C2CCC2(C)C(c3ccoc3)OC(=O)C3OC321 (centres unmarked) [obacunol] | – | – | – | – | hits | only HA-100 could be confirmed | –
quipazine dimaleate | – | – | – | – | hits | only HA-100 could be confirmed | –
